Target: HTR4 (Homo sapiens, UniProt Q13639)
Settings: agonist; pH 7.0, 30 °C

Chain of HTR4 (Q13639 whole entry): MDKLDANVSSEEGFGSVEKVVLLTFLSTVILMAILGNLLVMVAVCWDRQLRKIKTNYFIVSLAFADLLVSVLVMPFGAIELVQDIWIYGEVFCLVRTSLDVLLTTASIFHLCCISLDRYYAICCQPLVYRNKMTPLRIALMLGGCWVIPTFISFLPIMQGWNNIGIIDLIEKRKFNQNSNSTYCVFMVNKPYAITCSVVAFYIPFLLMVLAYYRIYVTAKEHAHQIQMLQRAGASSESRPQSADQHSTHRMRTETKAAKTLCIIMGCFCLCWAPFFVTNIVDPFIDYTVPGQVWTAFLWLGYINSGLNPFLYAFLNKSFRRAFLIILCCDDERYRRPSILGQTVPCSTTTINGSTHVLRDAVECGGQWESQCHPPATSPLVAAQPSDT

For `NCCc1c[nH]c2ccccc12` [tryptamine], which EC50 is on record?
The EC50 was “tryptamine agonism of HTR4 and ADRA2B”.
